Among the data in PubChem BioAssay AID1918954 (Molecular Pharmacology Branch, DTP, NCI, 2023) are IC50 and viability, T/C values, retold here.

This test relates to MDA-MB-468 complex spheroids with HUVEC/MSC, viability. The experiment in a line: Anticancer human tumor MDA-MB-468 cell line growth inhibition.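 On all read-outs here: spheroids exposed to agents for seven days.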 Conditions: for viability, T/C: stronger effect = lower value. The source says: Multicellular complex tumor spheroid response to LSD1 Inhibitor Iadademstat in combination with a variety of drugs and investigational agents in selected tumor cell lines
The current study was undertaken to assess response to LSD1 inhibitors in combination with standard-of-care drugs and investigational agents in solid tumor complex spheroid models as well as in the K-562 leukemia. Complex spheroids include a stromal component modeled by human endothelial cells (HUVEC) and fibroblasts modeled by human mesenchymal stem cells (MSCs). The concentration ranges selected for each drug and investigational agent were based upon clinically achievable concentrations if the clinical Cmax of the agent was known.
Compounds. The drugs and investigational agents used in this study are listed on Table 1. All of the agents used, including staurosporine (NSC755774) and gemcitabine (NSC613327), were obtained from the Developmental Therapeutics Program, NCI. FDA-approved anticancer drugs are available from the NCI at http://dtp.nci.nih.gov/branches/dscb/oncology_drugset_explanation.html. Drugs and investigational agents were >95% pure by proton nuclear magnetic resonance (NMR) and liquid chromatography/mass spectrometry (LC/MS). Stock solutions were prepared at 400x in DMSO, stored at -70 degrees C, and diluted in fresh medium prior to their use. The final concentration of DMSO in cell culture wells never exceeded 0.25% (v/v). The FDA-approved anticancer drug set is available from the Developmental Therapeutics Program at https://dtp.cancer.gov/organization/dscb/obtaining/available_plates.htm. All drugs and investigational agents were tested over a range starting from a high concentration at or near the clinical Cmax and decreasing in half-log increments. If the clinical Cmax for an agent had not been determined, the highest concentration tested was 10 microM.
Cell Lines. The patient-derived cancer cell (PDC) lines: 292921-168-R-J2-PDC, K24384-001-R-PDC, and 521955-158-R2-J5-PDC pancreatic carcinomas, 556581-035-R-J1 ovarian carcinoma, 324938-238-R-J1-PDC, 855422-203-R-J1-PDC and 883617-216-R-J1-PDC urothelial bladder carcinomas, 743489-274-T-PDC renal cell carcinoma, 138582-R-J1 Merkel cell tumor, K60290-347-R-J1 and K57222-313-R-J1-PDC glioblastomas, 653999-131-R-J2-PDC, LG0703-F948-PDC, and 349418-098-R-PDC non-small cell lung carcinomas, 885512-296-R-J2-PDC, 171881-019-R-J1-PDC breast carcinomas and 186277-243-T-J2-PDC and 233499-124-R-J2-PDC colon carcinomas were obtained from the NCI Patient-Derived Models Repository (PDMR, https://pdmr.cancer.gov). The established cell lines NCI/ADR-RES (RRID:CVCL_14520 and OVCAR-5 (RRID:CVCL_1628) ovarian carcinomas, 786-O (RRID:CVCL_1051) and A498 (RRID:CVCL_A498) renal cell carcinoma, NCI-H211 (ATCC, cat. CRL-5824; RRID:CVCL_1529), NCI-H196 (ATCC, cat. CRL-5823, RRID:CVCL_1509), SW 1271 (ATCC, cat. CRL-2177, RRID:CVCL_1716) and NCI-H1876 (ATCC, cat. CRL-5902, RRID:CVCL_1503) small cell lung carcinomas, MDA-MB-231 (RRID:CVCL_0062) and MDA-MB-468 (RRID:CVCL_0419)breast carcinomas (10-12). Pooled donor human umbilical vein endothelial cells (HUVEC, Lonza, cat. CC-2519) and human mesenchymal stem cells (hMSC, Lonza, cat. PT-2501) were purchased from Lonza (Walkersville, MD).
Cell Culture. All cells were maintained in an incubator at 37 degrees C and 5% CO2 with 95% humidity. The PDC lines were cultured according to standard operating procedures established by the NCI PDMR (https://pdmr.cancer.gov). Briefly all PDCs were thawed and cultured in Matrigel-coated flasks prepared with a working solution of 1X Ham's F-12 nutrient mix, without supplementation (Invitrogen, Waltham, MA, cat. 11765054), 100 U/mL penicillin-streptomycin (Invitrogen, cat. 15140122), and 2.5% Matrigel (Corning Inc., Corning, NY, cat. 354248) for the first three passages. […]

For orientation: IC50 means the concentration at which inhibition is half-maximal. In general, viability, T/C refers to the ratio of treated to control.

Structures are written as SMILES. Where “and” joins values, the source holds several entries; their conditions need not be identical. Equal values may be shown once.

Turning to `CC1COCCN1c1cc(C2(S(C)(=N)=O)CC2)nc(-c2ccnc3[nH]ccc23)n1` (configuration not stated) + NC1CC1c1ccc(-c2cccc(O)c2)cc1, the IC50 was 714 nM (curve of first compound, second compound 0.1 µM); 771 nM (curve of first compound, second compound 0.316 µM); 613 nM (curve of first compound, second compound 1 µM); 603 nM (curve of first compound, second compound 3.16 µM); 189 nM (curve of first compound, second compound 10 µM). The viability, T/C by setting is: (second compound 0.1 µM, first compound 0.0316 µM) 80%; (second compound 0.1 µM, first compound 0.1 µM) 88.2%; (second compound 0.1 µM, first compound 0.316 µM) 65.3%; (second compound 0.1 µM, first compound 1 µM) 42.1%; (second compound 0.1 µM, first compound 3.16 µM) 22%; (second compound 0.1 µM, first compound 10 µM) 9.29%. The viability, T/C reads like this: (second compound 0.316 µM, first compound 0.0316 µM) 95.1%; (second compound 0.316 µM, first compound 0.1 µM) 104%; (second compound 0.316 µM, first compound 0.316 µM) 62.3%; (second compound 0.316 µM, first compound 1 µM) 47.7%; (second compound 0.316 µM, first compound 3.16 µM) 20.8%; (second compound 0.316 µM, first compound 10 µM) 7.91%. The viability, T/C is 95.3% (second compound 1 µM, first compound 0.0316 µM); 80.5% (second compound 1 µM, first compound 0.1 µM); 69.5% (second compound 1 µM, first compound 0.316 µM); 36.2% (second compound 1 µM, first compound 1 µM); 17.8% (second compound 1 µM, first compound 3.16 µM); 7.07% (second compound 1 µM, first compound 10 µM). The viability, T/C is, setting by setting: (second compound 3.16 µM, first compound 0.0316 µM) 96.4%; (second compound 3.16 µM, first compound 0.1 µM) 101%; (second compound 3.16 µM, first compound 0.316 µM) 67.1%; (second compound 3.16 µM, first compound 1 µM) 34.6%; (second compound 3.16 µM, first compound 3.16 µM) 17.9%; (second compound 3.16 µM, first compound 10 µM) 7.17%. The viability, T/C was 64.4% (second compound 10 µM, first compound 0.0316 µM); 59.7% (second compound 10 µM, first compound 0.1 µM); 42% (second compound 10 µM, first compound 0.316 µM); 28.8% (second compound 10 µM, first compound 1 µM); 15.8% (second compound 10 µM, first compound 3.16 µM); 6.83% (second compound 10 µM, first compound 10 µM).
Consider `CC(C)CC(NC(=O)CNC(=O)c1cc(Cl)ccc1Cl)B1OC(=O)CC(CC(=O)O)(C(=O)O)O1` (configuration not stated), for which the viability, T/C is 109% (compound 0.000316 µM); 90.5% and 96.4% (compound 0.001 µM); 55.3% and 42.1% (compound 0.00316 µM); 11.1% and 5.88% (compound 0.01 µM); 1.51% and 0.31% (compound 0.0316 µM); 1.72% and 0.22% (compound 0.1 µM). Also, the IC50 (curve of compound) was 3.43 nM and 2.67 nM.
